Data from article PMC2831638 (Biochemistry, 2010).
Entries after “also recorded” stand apart in the source; their conditions may differ. Ends that are not written are not given here.

Key:
[1] = tested on: Aβ42-induced toxicity in differentiated PC-12 cells; settings: cell-viability screen; cited from earlier work
[2] = Peptide solubility, filtration assay with AAA; format: physicochemical; settings: pH 7.4

Substance | toxicity of the peptide itself (in words) [1] | Max. solubility [2] [µM] | other results
KGAIIGLMVGGVVIA [Aβ(28–42)] | highly toxic itself; also recorded: higher toxicity than Aβ42 itself |  | 
VVIA [Aβ(39–42)] |  |  | inhibition of Aβ42-induced toxicity (in words) [1]: strongest inhibitors
AEDVGSNKGA [Aβ(21–30)] |  | 129 ± 5 | 
IGLMVGGVVIA [Aβ(32–42)] | slight toxicity |  | 
LMVGGVV [Aβ(34–40)] |  | 169 ± 13 | 
